“And” between values parts separate entries of the source, which are not always exact repeats. Identical values can stand only once.
Legend:
[1] = test system: human peripheral blood monocytes; experiment: Monocyte chemotaxis in modified Boyden chambers; assay type: cell-based; conditions: for monocyte chemotaxis / migration (in words): peptide in lower compartment of modified Boyden chamber; for Mean Monocytes per 20 OIF + SEM: Experiment 2, peptide in lower compartment
Description: Human peripheral blood neutrophils and monocytes, isolated from whole blood using standard techniques may also be used in the chemotaxis assays, in a manner similar to infant foreskin fibroblasts, to measure the chemotactic activity of the peptides towards inflammatory cells. Such cells may also be maintained in supplemented MEM as above, to which 5-10% FCS may be added. When using neutrophils and monocytes, instead of fibroblasts, the polycarbonate filters used in the modified Boyden chambers had pore sizes of 2 and 3 microns, respectively. As above, all assays were carried out in quadruplicate.
The following 7-mer peptides (peptides 368-374, corresponding to amino acids 368-374 of human TGF-β1): VYYVGRK (SEQ ID NO. 1), LYYIGKT (SEQ ID NO. 2), LYYVGRT (SEQ ID NO. 3), IYYVGRN (SEQ ID NO. 4) and IYYVGRT (SEQ ID NO. 5) were synthesized by the Merrifield technique, purified by HPLC, and tested at different concentrations in the same assay for their ability to stimulate chemotaxis of human peripheral blood monocytes in vitro modified Boyden chambers.

guinea pig skin = experiment: In vivo fibrosis assay, intradermal injection into guinea pig skin; set-up: species or system Guinea pigs (Hartley strain); conditions: for fibrogenic response / fibrosis in guinea pig skin (in words): intradermal injection of peptide in collagen carrier; for Histologic Score (degree of fibrosis), Peptide site: 400 μg peptide in 1.7 mg type I collagen carrier, 100 μl intradermal, 9 days, one value per guinea pig, scale 0 to 4
Experimental: The ability of the peptides to induce cellular chemotaxis and a fibrogenic response (fibroblast proliferation and collagen synthesis) in vivo may be measured by intradermal injection of the peptides into the skin of guinea pigs. Generally, the in vivo, guinea pig skin studies were carried out according to the following protocol:
8 mg/cc stocks of the peptides according to the present invention in Dulbecco's PBS were sterile filtered using a 0.45μ syringe filter. PBS plus ZYDERM™ collagen (Collagen Corp., Inc.) was used as a control. Peptide stocks were diluted 1:1 with ZYDERM™ collagen (35 mg/ml), resulting in a 4 mg/ml peptide-collagen suspension. Peptide-collagen suspensions were kept on ice at all times and drawn up in 1 cc syringes fitted with 27 or 28 gauge needles.
(§1) Guinea pigs (Hartley strain, female, weanlings) were shaved on the left and right sides of their abdomens. 100 μl of a suspension of peptide-collagen was injected intradermally in one site on each side of each guinea pig. Each site was circled with an indelible ink pen. Pigs were remarked after 3 days. At appropriate times after injection, guinea pigs were sacrificed via CO2 narcosis. Animals were shaved and a depilatory was used to remove remaining stubble. Injection sites were excised using a skin biopsy punch (6 mm). Tissue was placed in vials with 10% neutral buffered formalin. Sections were processed for staining with H+E and Masson's Trichrome.
8 mg/cc stocks of TGF-β1 peptides in Dulbecco's PBS were sterile filtered using a 0.45μ syringe filter. PBS plus ZYDERM™ (Collagen Corp., Inc.) was used as a control. Peptide stocks were diluted 1:1 with ZYDERM™ collagen (35 mg/ml) resulting in a 4 mg/ml peptide-collagen suspension. Peptide-collagen suspensions were kept on ice at all times and drawn up in 1 cc syringes fitted with 27 or 28 gauge needles.
as §1, with “of” for “of a”, “peptide-collagenwas” for “peptide-collagen was”, “straining” for “staining”
In vivo fibrosis assays were performed. Guinea pigs were injected intradermally with 400 μg of either peptide VYYVGRK (SEQ ID NO. 1) or peptide PLPIVYYVGRKPKVE (SEQ ID NO. 6) in a 100 μl volume of saline containing type I bovine collagen carrier 1.7 mg (zyderm, Celtrex Corp. Palo Alto, Calif.). As a control, at a distant site on the same guinea pig, the collagen carrier plus saline was injected intradermally as a control. Nine days later, the animals were sacrificed, and the skin sectioned through the injection sites was processed for histology using Mason-Trichrome to stain collagen fibers. The degree of fibrosis was assessed at 400×magnification to determine degree of replacement of surrounding subcutaneous fat with newly synthesized collagen. FIG. 15 is a Mason-Trichrome, 400×[…] of 9 day post intradermal injection of guinea pig skin with 100 μl, 400 μg peptide PLPIVYYVGRKPKVE ([…]) in collagen carrier (1.7 mg). There is marked (score of 4) replacement of fat cells with newly synthesized collagen in the subcutaneous fatty layer. Fibroblasts are noted scattered throughout what was once subcutaneous fatty layer. FIG. 16 is a Mason-Trichrome 400×magnification of 9 days post intradermal injection of the same guinea pig as in […] at a distant site with saline and collagen carrier as a control. Note minimal (score of 1) replacement of fat cells with newly synthesized collagen. Few fibroblasts are visible in the subcutaneous fatty layer. […]

Row | Substance | monocyte chemotaxis / migration (in words) [1] | fibrogenic response / fibrosis in guinea pig skin (in words) (guinea pig skin) | Histologic Score (degree of fibrosis), Peptide site (guinea pig skin) | fibrogenic response / fibrosis in guinea pig skin (in words) (guinea pig skin; listed as PLPIVYYVGRKPKVE) | Mean Monocytes per 20 OIF + SEM ([1]; Media added to upper compartment) | Mean Monocytes per 20 OIF + SEM ([1]; TGF-β1 (50 pg/ml) added to upper compartment) | monocyte chemotaxis / migration (in words) ([1]; listed as VYYVGRK)
1 | 340-391: synthetic peptide corresponding to sequence 340-391 of TGF-β1; positive chemotactic control (VLALYNQHNPGASAAPCCVPQALEPLPIVYYVGRKPKVEQLSNMIVRSCKCS; printed: Val Leu Ala Leu Tyr Asn Gln His Asn Pro Gly Ala Ser Ala Ala Pro Cys Cys Val Pro Gln Ala Leu Glu Pro Leu Pro Ile Val Tyr Tyr Val Gly Arg Lys Pro Lys Val Glu Gln Leu Ser Asn Met Ile Val Arg Ser Cys Lys Cys Ser) [Peptide 340-391] | migrated in a dose dependent fashion | induced a fibrinogenic response | – | – | – | – | –
2 | PLPIVYYVGRKPKVE [Peptide 364-378, 15-mer peptide 364-378 of TGF-β1] | induced migration of fibroblasts, monocytes and neutrophils in a dose dependent fashion | induced a fibrinogenic response | 4 (4 equals 75 to 100% of fat cells replaced with collagen) and 3 (3 equals replacement of 50 to 75% of fat cells with collagen) | extensive collagen synthesis | – | – | –
3 | VYYVGRK [Peptide 368-374, 7-mer corresponding to amino acids 368-374 of TGF-β1] | induced migration of fibroblasts, monocytes and neutrophils in a dose dependent fashion | did not induce | 1 (1 equals replacement of 10 to 25% of the fat cells with collagen) | – | 138 ± 8 Monocytes per 20 OIF | 50 ± 5 Monocytes per 20 OIF | induced monocyte chemotaxis at all of the concentrations tested
4 | YSKVLALYNQHNPGASAAPC (YSKVLALYNQHNPGASAAPC) [Peptide 337-356] | – | induced a fibrinogenic response | – | – | – | – | –
